According to patent publication US8912180B2, “Heterocyclic compound” (Astellas Pharma Inc., priority 2010, dated 2014):
Counter-ions that a name gives are not always drawn.

Tests used:
[1] = molecular target: T1, Human PI3Kα (Homo sapiens, UniProt P42336); test: PI3Kα enzyme inhibitory activity (Kinase-Glo Plus luminescence); type: biochemical; conditions: human PI3Kα 12 ng/well, phosphatidylinositol 0.2 μg/well, 37° C. 3 hours
T1 construct: purchased Millipore Corporation 14-602
Experimental: 2. PI3Kα Enzyme Inhibitory Activity
Human PI3Kα (12 ng/well, Millipore Corporation, Catalogue No. 14-602), phosphatidylinositol (0.2 μg/well), and the test compound were mixed in a 384-well plate in a reaction buffer (50 mM Hepes, 10 mM NaCl, 10 mM MgCl2, 2 mM EGTA, 2 mM DTT, pH 7.3) (total 10 μl), and incubated at 37° C. for 3 hours. After the reaction, 10 μL of a Kinase-Glo Plus reagent (Promega, Catalogue No. V3772) was added thereto, and a luminescence was measured with a luminometer.

[2] = molecular target: T2, human PI3Kδ enzyme (Homo sapiens, UniProt O00329); test: PI3Kδ enzyme inhibitory activity (PI3-Kinase HTRF Assay kit); type: biochemical; conditions: human PI3Kδ 10 ng/well, ATP 30 μM, PIP2 10 μM, room temperature 30 minutes
T2 construct: purchased Millipore Corporation 14-604
T2 sequence (O00329 whole entry): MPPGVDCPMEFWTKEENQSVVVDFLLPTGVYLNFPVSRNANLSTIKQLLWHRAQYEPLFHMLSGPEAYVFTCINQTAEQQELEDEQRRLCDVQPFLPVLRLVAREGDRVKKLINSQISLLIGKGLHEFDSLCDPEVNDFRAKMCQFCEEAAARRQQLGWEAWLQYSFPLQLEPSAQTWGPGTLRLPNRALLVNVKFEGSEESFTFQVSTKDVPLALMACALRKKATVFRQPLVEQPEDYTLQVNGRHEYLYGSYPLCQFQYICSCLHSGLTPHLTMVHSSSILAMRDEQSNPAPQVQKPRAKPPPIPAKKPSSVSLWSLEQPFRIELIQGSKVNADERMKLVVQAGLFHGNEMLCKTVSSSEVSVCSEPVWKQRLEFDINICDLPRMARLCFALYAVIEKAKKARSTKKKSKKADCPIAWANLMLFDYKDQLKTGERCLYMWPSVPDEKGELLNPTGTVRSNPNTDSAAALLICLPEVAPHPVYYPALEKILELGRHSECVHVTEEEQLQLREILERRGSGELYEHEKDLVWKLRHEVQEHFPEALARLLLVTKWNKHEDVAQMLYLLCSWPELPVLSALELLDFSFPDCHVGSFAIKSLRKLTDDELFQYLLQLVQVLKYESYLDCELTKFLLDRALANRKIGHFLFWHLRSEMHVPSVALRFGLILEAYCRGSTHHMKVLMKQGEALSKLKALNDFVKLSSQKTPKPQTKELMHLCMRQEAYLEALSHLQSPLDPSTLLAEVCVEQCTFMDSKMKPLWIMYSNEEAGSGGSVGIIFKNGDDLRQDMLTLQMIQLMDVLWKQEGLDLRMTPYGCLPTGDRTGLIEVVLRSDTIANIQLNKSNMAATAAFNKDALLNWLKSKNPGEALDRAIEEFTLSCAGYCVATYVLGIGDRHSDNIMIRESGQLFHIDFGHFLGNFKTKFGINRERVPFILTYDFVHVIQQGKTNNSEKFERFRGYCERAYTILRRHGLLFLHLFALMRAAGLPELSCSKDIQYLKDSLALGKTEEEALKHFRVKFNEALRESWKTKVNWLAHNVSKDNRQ
T2 sequence (P27986 whole entry partner): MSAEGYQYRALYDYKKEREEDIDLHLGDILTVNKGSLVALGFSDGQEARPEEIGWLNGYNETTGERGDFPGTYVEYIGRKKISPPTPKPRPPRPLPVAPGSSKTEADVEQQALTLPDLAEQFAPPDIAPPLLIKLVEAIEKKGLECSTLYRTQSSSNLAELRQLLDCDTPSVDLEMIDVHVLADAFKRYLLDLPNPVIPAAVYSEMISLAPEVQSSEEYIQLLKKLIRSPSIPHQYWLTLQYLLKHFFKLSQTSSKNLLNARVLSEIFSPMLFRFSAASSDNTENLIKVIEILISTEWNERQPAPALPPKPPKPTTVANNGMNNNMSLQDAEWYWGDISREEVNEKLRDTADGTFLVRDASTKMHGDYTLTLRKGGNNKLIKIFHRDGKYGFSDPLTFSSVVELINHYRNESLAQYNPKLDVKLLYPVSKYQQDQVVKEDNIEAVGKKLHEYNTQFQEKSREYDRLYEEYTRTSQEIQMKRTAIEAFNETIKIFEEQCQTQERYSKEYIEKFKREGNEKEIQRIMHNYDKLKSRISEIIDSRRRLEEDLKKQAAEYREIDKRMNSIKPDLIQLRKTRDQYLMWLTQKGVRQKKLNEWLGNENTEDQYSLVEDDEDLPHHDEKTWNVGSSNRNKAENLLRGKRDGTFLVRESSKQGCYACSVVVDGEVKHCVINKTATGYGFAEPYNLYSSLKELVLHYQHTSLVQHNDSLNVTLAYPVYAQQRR
Experimental: 1. PI3Kδ Enzyme Inhibitory Activity
For the experiment, a PI3-Kinase HTRF Assay kit (Millipore Corporation, Catalogue No. 33-016) and a human PI3Kδ enzyme (Millipore Corporation, Catalogue No. 14-604) were used. The measurement method was in accordance with the appended instructions. The overview thereof is as follows.
PI3Kδ (10 ng/well), phosphatidylinositol-4,5-bisphosphate (10 μM), ATP (30 μM), and the test compound were mixed in a 384-well plate (total 20 μL), and incubated at room temperature for 30 minutes. EDTA and biotinylated phosphatidylinositol-3,4,5-triphosphate were added thereto to stop the reaction. Thereafter, a Europium labeled anti-GST antibody, a GST bond GRP1 PH domain, and streptavidin-APC were added thereto, followed by incubation overnight. An HTRF ratio was measured using an HTRF plate reader.

T1 sequence (P42336 whole entry): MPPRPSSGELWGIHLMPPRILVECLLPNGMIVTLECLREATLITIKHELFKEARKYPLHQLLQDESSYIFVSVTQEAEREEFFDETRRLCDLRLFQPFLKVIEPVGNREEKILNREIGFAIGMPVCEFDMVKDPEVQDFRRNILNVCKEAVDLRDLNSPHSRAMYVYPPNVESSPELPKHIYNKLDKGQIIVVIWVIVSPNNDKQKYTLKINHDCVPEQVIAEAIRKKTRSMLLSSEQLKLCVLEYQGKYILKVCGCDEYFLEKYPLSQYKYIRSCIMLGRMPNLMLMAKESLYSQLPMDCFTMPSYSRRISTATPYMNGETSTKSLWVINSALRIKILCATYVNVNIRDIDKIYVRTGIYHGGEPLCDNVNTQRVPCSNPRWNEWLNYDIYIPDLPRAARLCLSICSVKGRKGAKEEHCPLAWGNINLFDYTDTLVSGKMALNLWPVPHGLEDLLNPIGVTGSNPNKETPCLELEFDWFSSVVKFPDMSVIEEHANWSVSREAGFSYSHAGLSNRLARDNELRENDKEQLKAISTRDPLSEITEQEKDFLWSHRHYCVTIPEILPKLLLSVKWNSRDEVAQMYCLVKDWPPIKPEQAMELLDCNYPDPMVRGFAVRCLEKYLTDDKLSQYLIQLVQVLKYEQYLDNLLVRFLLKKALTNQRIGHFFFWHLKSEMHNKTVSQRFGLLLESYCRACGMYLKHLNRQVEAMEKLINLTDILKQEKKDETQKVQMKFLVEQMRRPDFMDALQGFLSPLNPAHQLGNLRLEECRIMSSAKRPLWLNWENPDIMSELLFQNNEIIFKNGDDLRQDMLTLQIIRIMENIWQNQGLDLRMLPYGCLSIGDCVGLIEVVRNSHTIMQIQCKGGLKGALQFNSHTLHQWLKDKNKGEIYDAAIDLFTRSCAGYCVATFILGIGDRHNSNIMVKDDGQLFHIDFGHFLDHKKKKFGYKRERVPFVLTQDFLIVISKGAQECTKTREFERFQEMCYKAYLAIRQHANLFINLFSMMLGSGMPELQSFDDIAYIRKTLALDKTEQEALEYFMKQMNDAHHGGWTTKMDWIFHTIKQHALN
T1 sequence (P27986 whole entry partner): as the sequence (P27986 whole entry partner) above

| IC50 [1] [nM] | IC50 [2] [nM] | SMILES |
| --- | --- | --- |
| 6800 | 56 | CN(C)CCN1CC[C@H](Nc2nc(N3CCOCC3)cc(-n3c(C(F)F)nc4ccccc43)n2)C1 [Example 45, 4-[2-(difluoromethyl)-1H-benzimidazol-1-yl]-N-{(3S)-1-[2-(dimethylamino)ethyl]pyrrolidin-3-yl}-6-morpholin-4-ylpyrimidin-2-amine dihydrochloride] |
| > 3000 | 4.5 | FC(F)c1nc2ccccc2n1-c1cc(N[C@H]2CCC[C@@H](N3CCOCC3)C2)nc(N2CCOCC2)n1 [Example 123] |
| > 3000 | 12 | CC(C)(C)OC(=O)N1CCC(N2CCC(CNc3nc(N4CCOCC4)cc(-n4c(C(F)F)nc5ccccc54)n3)CC2)CC1 [Example 30] |
| > 10000 | 69 | CC(C)(C)OC(=O)N1CCC(CNc2nc(N3CCOC[C@@H]3CF)cc(-n3c(C(F)F)nc4ccccc43)n2)CC1 [Example 16] |
| 5400 | 25 | Fc1ccc(N2CCC(CNc3nc(N4CCOCC4)cc(-n4c(C(F)F)nc5ccccc54)n3)CC2)cc1 [Example 75] |
| 5000 | 35 | COC(=O)N[C@@H]1CCN([C@H]2CC[C@H](Nc3cc(-n4c(C(F)F)nc5ccccc54)nc(N4CCOCC4)n3)CC2)C1=O [Example 371] |
| 6200 | 69 | FC(F)c1nc2ccccc2n1-c1cc(N2CCOCC2)nc(NCCC2CCN(Cc3ccccc3)CC2)n1 [Example 25] |
| > 3000 | 60 | CN1CCC(CNc2cc(-n3c(C(F)F)nc4ccccc43)nc(N3CCOCC3)n2)CC1 [Example 4] |
| 5400 | 18 | Fc1ccccc1N1CCC(CNc2nc(N3CCOCC3)cc(-n3c(C(F)F)nc4ccccc43)n2)CC1 [Example 77] |
| 3300 | 5.8 | C[C@@H]1C[C@H](N2CCC(CNc3nc(N4CCOCC4)cc(-n4c(C(F)F)nc5ccccc54)n3)CC2)C[C@H](C)O1 [Example 194] |
| 5000 | 14 | FC(F)c1nc2ccccc2n1-c1cc(N2CCOCC2)nc(NCC2CCN(c3ccccc3)CC2)n1 [Example 44, 4-[2-(difluoromethyl)-1H-benzimidazol-1-yl]-6-(morpholin-4-yl)-N-[(1-phenylpiperidin-4-yl)methyl]pyrimidin-2-amine dihydrochloride] |
| 6400 | 27 | FC(F)c1nc2ccccc2n1-c1cc(N2CCOCC2)nc(NCC23CCC(N4CCOCC4)(CC2)CC3)n1 [Example 120] |
| 2200 | 10 | O=C(C1CCOC1)N1CC[C@H](Nc2cc(-n3c(C(F)F)nc4ccccc43)nc(N3CCOCC3)n2)C1 (stereo partly drawn) [A464] |
| 980 | 36 | C[C@H]1COCCN1c1cc(-n2c(C(F)F)nc3ccccc32)nc(NCC2CCN(C(=O)OC(C)(C)C)CC2)n1 [Example 13] |
| 990 | 47 | CN(C)CC(=O)N1CCC(CNc2nc(N3CCOCC3)nc(-n3c(C(F)F)nc4ccccc43)n2)CC1 [Example 67] |
| 2900 | 8.5 | COc1ccc(N2CCC(CNc3nc(N4CCOCC4)cc(-n4c(C(F)F)nc5ccccc54)n3)CC2)cc1 [Example 78] |
| – | 22 | CN(C)CC(=O)N1CC(Nc2nc(N3CCOCC3)cc(-n3c(C(F)F)nc4ccccc43)n2)C1 [Example 69] |
| 1800 | 19 | C[C@H]1COCCN1c1cc(-n2c(C(F)F)nc3ccccc32)nc(NC[C@H]2CCCN(C(=O)OC(C)(C)C)C2)n1 [Example 20] |
| 4200 | 18 | FCC(CF)N1CCC(CNc2nc(N3CCOCC3)cc(-n3c(C(F)F)nc4ccccc43)n2)CC1 [Example 35] |
| 3900 | 27 | FC(F)c1nc2ccccc2n1-c1cc(N2CCOCC2)nc(NCC2CCN(CC3CCOCC3)CC2)n1 [Example 39] |
